Results on 3 substances are retold here after US9921224B2, “Use of CD36 to identify cancer subjects for treatment” (Children's Medical Center Corporation, priority 2013, dated 2018).

Where no end group is shown, it is not given here. [ ]: non-standard residue; d: D form.

One assay has as its system LLC cells. The assay can be described thus: In vitro cell proliferation (MTT) assay, LLC cells. The class given is cell-based, murine. To be noted: 48 hours after addition of serially diluted amounts. As for the experimental part: Cell proliferation was measured using the MTT (3-{4,5-Dimethylthiazol-2-yl}-2,5-diphenyltetrazolium bromide, Sigma-Aldrich) assay. Cells were seeded in 50 uL growth medium in 96 well culture plates and allowed to attach overnight. 50 uL of growth medium plus two-fold concentrated treatment reagents were then added. After each treatment time point, 10 uL of 5% MTT solution (buffered in PBS) was added to each well. Plates were incubated for an additional 4 h at 37° C. to allow MTT to be metabolically converted into formazan crystals at cell mitochondria. The formazan crystals were finally solubilized by adding 100 ul of 10% Sodium Dodecyl Sulphate in 50% N—N-Dimethylformamide to each microplate well. Absorbances at 550 and 680 nm (corresponding to formazan salt and reference wavelengths, respectively) were measured using a colorimetry microplate reader. Wells containing only complete medium were used as controls. Each experiment was performed twice, using six replicates for each drug concentration.
To test this, LLC cells were treated with either recombinant Tsp-1 or DWLPK (SEQ ID NO: 2) Psap peptide and cell proliferation was measured using an MTT assay. […] This supports the hypothesis that Tsp-1 can act directly on cancer cells, as this assay was performed in vitro in the absence of any blood vessels.

Assay [1] concerns Ovarian cancer cells expressing CD36. The assay can be described thus: Viability of ovarian cancer cells expressing CD36 treated with Tsp-1. The class given is cell-based. To be noted: Tsp-1 100 ng, 500 ng or 1000 ng; 0 hours or 48 hours. The protocol: Ovarian cancer cells expressing CD36 were treated with either control or thrombospondin (Tsp-1, either 100 ng, 500 ng or 1000 ng) and the percent of viable cells was measured at 0 hours or 48 hours.

The test system of assay [2] is ovarian cancer cells expressing luciferase. Put plainly: Ovarian cancer mouse model (luciferase intensity). The class given is in vivo. To be noted: high CD36 ovarian cancer model. As for the experimental part: For the ovarian cancer mouse model, 1 million ovarian cancer cells expressing luciferase were injected intraperitoneally. Treatment was initiated 17 days later with cisplatin (4 mg/kg QOD), the psap peptide dWlP (SEQ ID NO: 47, 40 mg/kg QD), a combination of cisplatin and psap peptide, or PBS QD. Luciferase intensity was measured on several days beginning on about day 17 and measured over time.

A further assay has as its system B16-B16 cells. The assay can be described thus: Melanoma mouse model. The class given is in vivo, mice. To be noted: low CD36 B16-B16 melanoma; 10 or 40 mg/kg; up to about 20-25 days post cell injection. The protocol:
For the melanoma mouse model, B16-B16 cells were injected into mice. Mice were treated with either psap peptide dWlP (SEQ ID NO: 47, 10 or 40 mg/kg) or control. The volume of the tumor was measured over time up until about 20-25 days post cell injection.

The test system of assay [3] is AsPc1 human pancreatic cells. The assay can be described thus: Pancreatic cancer mouse model. The class given is in vivo, SCID mice. The settings on record: for primary tumor mass: high CD36 AsPC pancreatic model, SCID mice, 20 or 40 mg/kg/day, from day 25 daily for 21 days. The protocol: For the pancreatic cancer mouse model, 1×10^6 AsPc1 human pancreatic cells were injected into the pancreas of SCID mice. Mice were treated either with a control or with the psap peptide dWlP (SEQ ID NO: 47, 20 mg/kg/day or 40/mg/kg/day). Treatment began on day 25 and continued daily for 21 days. The mice were then euthanized and the primary tumor mass was measured. The presence or absence of ascites was also measured.

As to “DWLPK: DWLPK (SEQ ID NO: 2) Psap peptide, derived from a fragment of Saposin A (Psap peptide)”, in the assay with LLC cells, the “cell proliferation (MTT assay)” value is listed as “did not affect cell proliferation”.
Consider “Tsp-1: recombinant thrombospondin (Tsp-1), a ligand of CD36”, for which, in the assay on LLC cells, the “cell proliferation (MTT assay)” value is “capable of decreasing cell proliferation”. In addition, the “percent of viable cells (Tsp-1 mediated cell killing)” value in assay [1] is recorded as “sensitive to Tsp-1 mediated cell killing in a dose-dependent manner”.
Turning to “dWlP: psap peptide dWlP (SEQ ID NO: 47); lower case D and L indicate D-amino acids ([dD]W[dL]P)”, the metastatic disease result in assay [2] (dWlP 40 mg/kg QD) was “showed regression of metastatic disease”. Moreover, in assay [2] (dWlP 40 mg/kg QD from day 17), the “tumor response (luciferase intensity over time)” value is listed as “caused regression of cancer”. The “tumor growth (tumor volume over time)” value with B16-B16 cells was “inhibited tumor growth but did not regress the tumor”. Moreover, the figures for the primary tumor mass entry in assay [3] and in assay [3] (listed as psap peptide) were “primary tumor mass was inhibited” and “regressed”, respectively. Moreover, the “mice that form ascites (inhibition of metastasis)” value in assay [3] (pancreatic cancer model, control: 4 of 10 mice) was 1 of 19.
